Results reported in US20250228239A1, “MOLECULES HAVING PESTICIDAL UTILITY, AND INTERMEDIATES, COMPOSITIONS, AND PROCESSES, RELATED THERETO” (priority 2024, published 2025).
Read-outs that look alike come from different tables or passages of the source.

How the values were obtained:
[1] = system: Beet Armyworm (Spodoptera exigua, LAPHEG); test: Bioassays on Beet Armyworm (BAW), 128-well diet tray assay; format: in vivo; conditions: Spodoptera exigua
Outline: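 One to five second-instar larvae per well on artificial diet surface-treated with 50 μg/cm^2 test molecule (applied in 90:10 acetone-water, dried), eight wells per compound. Trays held vented at 25° C., 14:10 light-dark for five to seven days; percent mortality averaged over the eight wells.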

[2] = system: Cabbage Looper (Trichoplusia ni, TRIPNI); test: Bioassays on Cabbage Looper (CL), 128-well diet tray assay; format: in vivo; conditions: Trichoplusia ni
Outline: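 Diet tray, 2nd instar, 1–5 larvae/well; 50 μg/cm^2 compound surface-applied (acetone:water 90:10), dried; 8 wells/treatment; 25° C, 14:10 L:D, 5–7 d; % mortality, mean of 8 wells.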

[3] = Beet Armyworm, rating class, read-out: BAW
[4] = Cabbage Looper, rating class, read-out: CL
[5] = Table ABC: Biological Results, species BAW, read-out: BAW
[6] = Table ABC: Biological Results, species CL, read-out: CL
[7] = Beet Armyworm, Table ABC / ABC-DP rating, read-out: BAW rating
[8] = Cabbage Looper, Table ABC / ABC-DP rating, read-out: CL rating

| Compound | pest or weed control at 50 µg/cm2 [1, 3] [%] | pest or weed control at 50 µg/cm2 [2, 4] [%] | pest or weed control at 50 µg/cm2 [1, 5] [%] | pest or weed control at 50 µg/cm2 [2, 6] [%] | further results |
| --- | --- | --- | --- | --- | --- |
| O=C(Nc1cc(NC(=O)C(F)F)c(F)cc1F)c1cc(NC(=O)[C@H]2[C@H](c3ccc(Cl)c(Cl)c3)C2(Cl)Cl)ccc1F [F1509, 5-((1R,3R)-2,2-Dichloro-3-(3,4-dichlorophenyl)cyclopropane-1-carboxamido)-N-(5-(2,2-difluoroacetamido)-2,4-difluorophenyl)-2-fluorobenzamide] | 50 to 100 | 50 to 100 |  |  |  |
| CC(=O)Nc1ccc(NC(=O)c2c(Cl)ccc(NC(=O)[C@H]3[C@H](c4ccc(F)c(Cl)c4)C3(Cl)Cl)c2Cl)cc1 (relative stereo) [F1102, trans-N-(4-Acetamidophenyl)-2,6-dichloro-3-(2,2-dichloro-3-(3-chloro-4-fluorophenyl)cyclopropane-1-carboxamido)benzamide] |  |  | 50 to 100 | 50 to 100 |  |
| O=C(Nc1ccc(F)c(NC(=O)C(F)(F)F)c1F)c1cc(NC(=O)[C@H]2[C@H](c3ccc(Cl)c(Cl)c3)C2(Cl)Cl)cc(F)c1Cl [F1288, 2-Chloro-5-((1R,3R)-2,2-dichloro-3-(3,4-dichlorophenyl)cyclopropane-1-carboxamido)-N-(2,4-difluoro-3-(2,2,2-trifluoroacetamido)phenyl)-3-fluorobenzamide] |  |  | 50 to 100 | 50 to 100 |  |
| Nc1c(F)ccc(NC(=O)c2c(F)ccc(NC(=O)[C@H]3[C@H](c4ccc(F)c(Cl)c4)C3(Cl)Cl)c2F)c1F (relative stereo) [F1111, trans-N-(3-Amino-2,4-difluorophenyl)-3-(2,2-dichloro-3-(3-chloro-4-fluorophenyl)cyclopropane-1-carboxamido)-2,6-difluorobenzamide] |  |  | 50 to 100 | 50 to 100 |  |
| O=C(Nc1ccc(F)c(NC(=O)C2(F)OC(F)(F)C(F)(F)C(F)(F)C2(F)F)c1F)c1cc(NC(=O)[C@H]2[C@H](c3ccc(F)c(C(F)(F)F)c3)C2(Cl)Cl)ccc1Cl (stereo partly drawn) [F1783, N-(3-(2-Chloro-5-((1R,3R)-2,2-dichloro-3-(4-fluoro-3-(trifluoromethyl)phenyl)cyclopropane-1-carboxamido)benzamido)-2,6-difluorophenyl)-2,3,3,4,4,5,5,6,6-nonafluorotetrahydro-2H-pyran-2-carboxamide] |  |  |  |  | pest or weed control at 50 µg/cm2 [1, 7]: 50 to 100%; pest or weed control at 50 µg/cm2 [2, 8]: 50 to 100% |
| Cc1cc(C2C(C(=O)Nc3ccc(Cl)c(C(=O)Nc4ccc(F)c(N)c4F)c3)C2(Cl)Cl)cc(C(F)(F)F)c1F (stereo not drawn) [F1069, cis-N-(3-Amino-2,4-difluorophenyl)-2-chloro-5-((cis)-2,2-dichloro-3-(4-fluoro-3-methyl-5-(trifluoromethyl)phenyl)cyclopropane-1-carboxamido)benzamide] |  |  | 50 to 100 | 50 to 100 |  |
| O=C(Nc1ccc(F)cc1)c1cc(NC(=O)[C@H]2[C@H](c3cc(Cl)cc(Cl)c3)C2(Cl)Cl)ccc1F (single isomer, unassigned) [F1374] |  |  | 50 to 100 | 50 to 100 |  |
| CC(=O)Nc1c(F)ccc(NC(=O)c2cc(NC(=O)[C@H]3[C@H](c4cc(Cl)c(Cl)c(Cl)c4)C3(Cl)Cl)cc(C)c2Cl)c1F [F1544, N-(3-Acetamido-2,4-difluorophenyl)-2-chloro-5-((1R,3R)-2,2-dichloro-3-(3,4,5-trichlorophenyl)cyclopropane-1-carboxamido)-3-methylbenzamide] | 50 to 100 | 50 to 100 |  |  |  |
| O=C(NNc1ccc(Cl)c(Cl)c1)c1cc(NC(=O)[C@H]2[C@H](c3cc(Cl)cc(Cl)c3)C2(Cl)Cl)ccc1Cl (relative stereo) [F2560, trans-2,2-Dichloro-N-(4-chloro-3-(2-(3,4-dichlorophenyl)hydrazine-1-carbonyl)phenyl)-3-(3,5-dichlorophenyl)cyclopropane-1-carboxamide] |  |  |  |  | pest or weed control at 50 µg/cm2 [1, 7]: 50 to 100%; pest or weed control at 50 µg/cm2 [2, 8]: 50 to 100% |
| O=C(Nc1ccc(F)c(NC(=O)C(F)(F)C(F)(F)C(F)(F)F)c1F)c1cc(NC(=O)[C@H]2[C@H](c3cc(Cl)c(Cl)c(Cl)c3)C2(Cl)Cl)ccc1Cl [F1652, 2-Chloro-5-((1R,3R)-2,2-dichloro-3-(3,4,5-trichlorophenyl)cyclopropane-1-carboxamido)-N-(2,4-difluoro-3-(2,2,3,3,4,4,4-heptafluorobutanamido)phenyl)benzamide] | 50 to 100 | 50 to 100 |  |  |  |
| O=C(NCC(F)(F)C(F)(F)F)c1c(Cl)ccc(NC(=O)[C@H]2[C@H](c3ccc(F)c(Cl)c3)C2(Cl)Cl)c1F [F2073, 6-Chloro-3-((1R,3R)-2,2-dichloro-3-(3-chloro-4-fluorophenyl)cyclopropane-1-carboxamido)-2-fluoro-N-(2,2,3,3,3-pentafluoropropyl)benzamide] |  |  |  |  | pest or weed control at 50 µg/cm2 [1, 7]: 50 to 100%; pest or weed control at 50 µg/cm2 [2, 8]: 50 to 100% |
| O=C(Nc1c(F)ccc(NC(=O)c2cc(NC(=O)[C@H]3[C@H](c4ccc(F)c(C(F)(F)F)c4)C3(Cl)Cl)ccc2Cl)c1F)c1ccccc1 [F1179, N-(3-Benzamido-2,4-difluorophenyl)-2-chloro-5-((1R,3R)-2,2-dichloro-3-(4-fluoro-3-(trifluoromethyl)phenyl)cyclopropane-1-carboxamido)benzamide] |  |  | 50 to 100 | 50 to 100 |  |
| Cc1cc(NC(=O)[C@H]2[C@H](c3ccc(F)c(C(F)(F)F)c3)C2(Cl)Cl)cc(C(=O)Nc2ccc(F)c(N)c2F)c1Cl [F1458, N-(3-Amino-2,4-difluorophenyl)-2-chloro-5-((1R,3R)-2,2-dichloro-3-(4-fluoro-3-(trifluoromethyl)phenyl)cyclopropane-1-carboxamido)-3-methylbenzamide] | 50 to 100 | 50 to 100 |  |  |  |
| Nc1cc(NC(=O)c2cc(NC(=O)[C@H]3[C@H](c4cc(Cl)cc(Cl)c4)C3(Cl)Cl)cc(F)c2Cl)c(F)cc1F [F1399, N-(5-Amino-2,4-difluorophenyl)-2-chloro-5-((1R,3R)-2,2-dichloro-3-(3,5-dichlorophenyl)cyclopropane-1-carboxamido)-3-fluorobenzamide] | 50 to 100 | 50 to 100 |  |  |  |
| Cc1cc(NC(=O)[C@H]2[C@H](c3cc(Cl)c(Cl)c(Cl)c3)C2(Cl)Cl)cc(C(=O)Nc2cc(N)c(F)cc2F)c1Cl [F1477, N-(5-Amino-2,4-difluorophenyl)-2-chloro-5-((1R,3R)-2,2-dichloro-3-(3,4,5-trichlorophenyl)cyclopropane-1-carboxamido)-3-methylbenzamide] | 50 to 100 | 50 to 100 |  |  |  |
| CC(=O)Nc1c(F)ccc(NC(=O)c2cc(NC(=O)[C@H]3[C@H](c4cc(Cl)cc(Cl)c4)C3(Cl)Cl)cc(F)c2Cl)c1F [F1502, N-(3-Acetamido-2,4-difluorophenyl)-2-chloro-5-((1R,3R)-2,2-dichloro-3-(3,5-dichlorophenyl)cyclopropane-1-carboxamido)-3-fluorobenzamide] | 50 to 100 | 50 to 100 |  |  |  |
| Cc1cc(NC(=O)[C@H]2[C@H](c3ccc(Cl)c(Cl)c3)C2(Cl)Cl)cc(C(=O)Nc2cc(N)c(F)cc2F)c1Cl [F1470, N-(5-Amino-2,4-difluorophenyl)-2-chloro-5-((1R,3R)-2,2-dichloro-3-(3,4-dichlorophenyl)cyclopropane-1-carboxamido)-3-methylbenzamide] | 50 to 100 | 50 to 100 |  |  |  |
| CCCC(=O)Nc1c(F)ccc(NC(=O)c2cc(NC(=O)[C@H]3[C@H](c4ccc(Cl)c(C(F)(F)F)c4)C3(Cl)Cl)ccc2Cl)c1F [F1659, N-(3-Butyramido-2,4-difluorophenyl)-2-chloro-5-((1R,3R)-2,2-dichloro-3-(4-chloro-3-(trifluoromethyl)phenyl)cyclopropane-1-carboxamido)benzamide] | 50 to 100 | 50 to 100 |  |  |  |
| CC(=O)Nc1ccc(F)c(NC(=O)c2cc(NC(=O)[C@H]3[C@H](c4ccc(F)c(C(F)(F)F)c4)C3(Cl)Cl)cc(C)c2Cl)c1F [F1525, N-(3-Acetamido-2,6-difluorophenyl)-2-chloro-5-((1R,3R)-2,2-dichloro-3-(4-fluoro-3-(trifluoromethyl)phenyl)cyclopropane-1-carboxamido)-3-methylbenzamide] | 50 to 100 | 50 to 100 |  |  |  |
| CC(CC(F)(F)F)C(=O)Nc1c(F)ccc(NC(=O)c2cc(NC(=O)[C@H]3[C@H](c4ccc(F)c(C(F)(F)F)c4)C3(Cl)Cl)ccc2Cl)c1F (stereo partly drawn) [F1835, 2-Chloro-5-((1R,3R)-2,2-dichloro-3-(4-fluoro-3-(trifluoromethyl)phenyl)cyclopropane-1-carboxamido)-N-(2,4-difluoro-3-(4,4,4-trifluoro-2-methylbutanamido)phenyl)benzamide] |  |  |  |  | pest or weed control at 50 µg/cm2 [1, 7]: 50 to 100%; pest or weed control at 50 µg/cm2 [2, 8]: 50 to 100% |
| O=C(Nc1cc(NC(=O)C(F)F)c(F)cc1F)c1cc(NC(=O)[C@H]2[C@H](c3ccc(F)c(Cl)c3)C2(Cl)Cl)cc(F)c1Cl [F1400, 2-Chloro-5-((1R,3R)-2,2-dichloro-3-(3-chloro-4-fluorophenyl)cyclopropane-1-carboxamido)-N-(5-(2,2-difluoroacetamido)-2,4-difluorophenyl)-3-fluorobenzamide] | 50 to 100 | 50 to 100 |  |  |  |
| CC(C)(C)OC(=O)Nc1c(F)ccc(NC(=O)c2cc(NC(=O)[C@H]3[C@H](c4cc(F)cc(Br)c4F)C3(Cl)Cl)ccc2Cl)c1F (relative stereo) [F1095, trans-tert-Butyl-(3-(5-(3-(3-bromo-2,5-difluorophenyl)-2,2-dichlorocyclopropane-1-carboxamido)-2-chlorobenzamido)-2,6-difluorophenyl)carbamate] |  |  | 50 to 100 | 50 to 100 |  |
